Laboratory results from patent US10829506B2, “Amino- or ammonium-containing sulfonic acid, phosphonic acid and carboxylic acid derivatives and their medical use” (GRI Bio, Inc., priority 2011, dated 2020).

Key:
RBL-2H3 cells [1] = experiment: Inhibition of mast cell degranulation (β-hexosaminidase release); type: cell-based, rat; settings: RBL-2H3 cells sensitized with anti-DNP IgE, triggered with DNP-HSA, 1 h preincubation
From the text: Mast cells are key effector cells involved in allergic and inflammatory diseases, and the Rat Basophilic Leukemia clone 2H3 (RBL-2H3) cell line is a commonly used model of allergen dependent immune modulator release (degranulation) in mast cells. On their surface, they express the high affinity receptor for IgE (FcεRI). Upon binding of antigen-specific IgE to the receptor, cells become sensitized to the IgE specific antigen (allergen). When IgE-sensitized cells then encounter multivalent antigen, the antigen clusters IgE-FcεRI complexes and initiates a signal transduction cascade that leads to degranulation, that is, the release of inflammatory mediators, such as cytokines, eicosanoids, histamine and enzymes. The assay can be used as a screening method to identify immune-modulating compounds, in particular compounds useful in the medical management of allergic and inflammatory diseases and asthma, β-hexosaminidase was previously shown to be released with the same kinetics as histamine (Schwartz et al., J Immunology; 123:1445-1450 (1979)), thus offering a simple means to monitor degranulation. The RBL-2H3 cell line has been successfully used to identify compounds with anti-allergic activity (Choo et al. Planta Med., 69:518-522 (2003)).
Cell Culture: RBL-2H3 cells obtained from the German Collection of Microorganisms and Cell Cultures (ACC312) (Braunschweig, Germany) were maintained in 70% Minimum Essential Medium with Earle's Salts, 20% RPMI 1640 Medium, 10% FBS and 2 mM l-glutamine in 95% air/5% CO2 at 37° C. and routinely checked for mycoplasma contamination. Cells were passaged every 3-4 days; after washing cells once with 35 ml PBS cells were incubated 8 min with 5 ml 0.05% Trypsin-EDTA solution at 37° C. Cells were removed from the incubator, 15 ml culture medium was added and cells were resuspended by repeated pipetting.
Cell seeding: cells were harvested with Trypsin-EDTA as described and 50-100 μl cell suspension seeded Into Costar CellBind 24 well cluster plates (no. 3337). Plates were kept for 30 min at RT under the sterile hood before being transferred to the incubator. Cells were used within one or two days after seeding.
For sensitization, cells for immediate use were sensitized 6-12 h after plating; cells to be used the following day were sensitized 26-38 h after plating. Culture plates were removed from the incubator and checked for cell growth and contamination. The medium was discarded and cells were sensitized with anti-DNP IgE (0.4 μg/ml) in 0.4 ml culture medium overnight. Following overnight sensitization, cells were washed with 0.8 ml pre-warmed TyB and 0.38 ml test compound or vehicle control (supplemented or not with 1% FBS) were added to duplicate wells. Samples were adjusted to contain 1% vehicle for test compounds dissolved in organic solvents. Cells were incubated for 1 h at 37° C. At the end of the incubation period, cells were routinely stimulated with 20 μl DNP-HSA (2 μg/ml; final concentration 0.1 μg/ml) diluted in TyB and cells were incubated for 15 min at 37° C. Alternatively, cells were stimulated with 20 μl […] (final concentration 0.25 μM) or 20 nM […] (final concentration 0.25 μM), both in the absence or presence of 20 nM PMA (final concentration).
Plates were removed from the incubator and immediately centrifuged at 4° C. for 5 min at 250×g and transferred to an ice bath. Aliquots of supernatants, 25 μl, were transferred to 96-well plates. Remaining supernatant was aspirated from control wells and cells were lysed in […] lysis buffer for 5 min at RT on an orbital shaker at 450 rpm under non-sterile conditions. After lysis, 25 μl aliquots of lysates were transferred to 96-well plates.
MUG substrate solution, 100 μl, were added to supernatant and lysate samples and plates were incubated 30 min at 37° C. The reaction was terminated by addition of 150 μl stop solution. Fluorescence was measured at 365 nm excitation and 440 nm emission wavelengths. […]

RBL-2H3 cells [2] = experiment: Maximum tolerated concentration (cytotoxicity by lactate dehydrogenase release); type: cell-based, rat
From the text: A commercially available cytotoxicity test was used (Promega Cytotox-One cat. #67891).
The safety index (SI) of a test compound Is the ratio between the maximum tolerated concentration and the 1C50 and is used as a measure of the relative safety of the test compound.

phospho-Akt Ser473 = experiment: Inhibition of Akt phosphorylation on Ser473 in IgE sensitized, antigen stimulated RBL-2H3 cells; type: cell-based, rat; settings: normalized to total Akt, IgE and antigen for 15 min
From the text: The mast cell degranulation assay using the RBL-2H3 cell line (see Example 27) was also used to determine the status of the PI3K/Akt axis. Activation of PI3K leads to production of PIP3 on the cytosolic side of the lipid bilayer. Akt is recruited to the PIP3 domain and subsequently activated by phosphorylation on residues Ser473 and Thr308. (Franke et al., Cell 81:727-736, (1995)). Once recruited to the membrane, it is phosphorylated and activated by other kinases (Hemmings, Science 275:628-630 (1997); Hemmings. Science 276:534 (1997); Downward, Science 279:673-674 (1998); Alessi et al., EMBO J. 15:6541-6551 (1996)). Western blotting of the phosphorylated Ser473 residue on Akt (phospho-Akt Ser473) is widely used to assess the level of activation of the PI3K/Akt axis.
All buffers and solutions used for the phosphor-Akt Ser473 assay were from Meso Scale Discovery. Tris Lysis Buffer consisted of 150 mM NaCl, 20 mM Tris, pH 7.5, 1 mM EDTA, 1 mM EGTA and 1% Triton-X-100. Complete Tris Lysis Buffer was prepared prior to use by addition of protease inhibitor, phosphatase inhibitors and PMSF. The 10x Tris Wash Buffer consisted of 500 mM Tris, pH 7.5, 1.5 M NaCl and 0.2% Tween-20. Blocker A was made up of bovine serum albumin in Tris Wash Buffer. Read Buffer T was used according to manufacturer's instructions. The Whole Cell Lysate Kits used were phospho-Akt Ser473 (K11100D. Lot K0011749) and total ERK½ (K11107D, Lot K0011698) as a loading control.
Protein assay: protein concentration was determined using the BCA (bicinchoninic acid) Protein Assay kit according to the manufacturer's instructions, Briefly, duplicate 10 μl samples of bovine serum albumin (BSA) standards, blank and lysates were incubated in a 96-well plate with 0.2 ml working reagent for 30 min at 37° C. Plates cooled to room temperature for 5 min and absorbance at 562 nm measured in a multi-mode plate reader. Protein concentrations were calculated using FlexStation 3 software (SoftMax Pro version 5.3). Protein concentration of lysates was determined from a standard curve (BSA) using a linear curve fit.
Phosphoprotein assay: protein phosphorylation was determined using the MULTI-SPOT® Assay System (Meso Scale Discovery), providing simultaneous detection of phosphorylated and total proteins. Briefly, capture antibodies against phosphorylated and total protein are patterned on distinct spots in the same well of 96-well plates. Sandwich immunoassay and electrochemiluminescence detection technology are combined to measure intensity of the emitted light from phosphorylated and total protein spots. For analysis of phosphor-Akt Ser473 was performed according to the manufacturer's instructions. The optimal amount of protein was determined at 5 μg lysate per well for ERK½ and 10 μg/well for phospho-Akt Ser473. Plates were blocked with 25 μl/well Blocker A for 1 h at room temperature with gentle agitation. During this time, the lysates were thawed and diluted to the desired protein concentration in complete Tris Lysis Buffer. Plates were washed four times in Tris Wash Buffer and 25 μl lysate per well added. Plates were incubated for 1-3 h at room temperature with agitation according to the manufacturer's recommendations. Plates were washed four times with Tris Wash Buffer, followed by addition of 25 μl/well of the respective detection antibody and incubation for 1 h at room temperature, with agitation. After a final four washes with Tris Wash Buffer 150 μl/well, Read Buffer T was added, and plates read on a SECTOR Imager 6000 plate reader.
The mean background signal from each plate was subtracted from averaged raw data. The amount of total protein phosphorylaled was expressed as % phosphoprotein according to the manufacturer's (Meso Scale Discovery) Instructions.
Levels of phospho-Akt Ser473 were determined in IgE sensitized and antigen stimulated cells after treatment without (positive control) or with 1, 5 and 25 μM test compound and normalized to levels of total Akt.

BALB/cJW mice = experiment: Delayed-type hypersensitivity (DTH) reaction, mouse ear swelling; type: in vivo; settings: oral; 1a 100 mg/kg (loading dose, then maintenance doses), dexamethasone 1.0 mg/kg once daily; 24 h after ovalbumin challenge
Method: The anti-inflammatory and anti-allergic effects of compound 1a was assessed in a mouse model of skin delayed-type hypersensitivity (DTH) reactions and compared to a vehicle control and to the reference drug dexamethasone. DTH reactions are antigen-specific cell-mediated immune responses, driven primarily by T helper type 1 (Th1) cells, similar to the tuberculin immunization response. The immune reaction induced by an ovalbumin challenge to animals previously sensitized with ovalbumin in Complete Freund's Adjuvant, is characterized by swelling (edema) at the site of challenge, e.g. the mouse ear. Dexamethasone, an anti-inflammatory steroid, reduces cell-mediated immune responses and was employed to validate the responsiveness of the assay to pharmacological treatment.
Female BALB/cJW mice were bred at the University of Lodz, Lodz, Poland and housed in groups of 8 in makrolon cages with a 12 h light-dark cycle. Mice were given free access to food (Agropol S. j., Motycz, Poland) and water.
Group size was n=8 mice unless otherwise stated. Test compound was freshly prepared before administration.
Sensitization: The protein antigen, ovalbumin, was reconstituted in PBS at 4 mg/ml. […] The emulsion was tested by putting a drop of emulsion onto PBS; if the emulsion remained as a light droplet on the PBS, the emulsion was deemed ready. […]
Challenge: On the sixth day after sensitization, DTH was elicited by challenging animals subcutaneously (gauge 30 needle, B. Braun Melsungen, Melsungen, Germany) in the left ears with 10 μL of a 1% suspension of heat-aggregated ovalbumin (HOVA) (100 μg ovalbumin per mouse). […] Ear thickness was measured with a precise spring-loaded caliper (Art. No, 7309, Mltutoyo, Kawasaki, Japan) before challenge, and 24 h after challenge. […]
To account for individual variability, the increase in right ear thickness, before and 24 h after administration of PBS, was subtracted from the HOVA-induced increase in left ear thickness. The increase in ear thickness was calculated by the difference between ear thickness before and 24 h after antigen challenge. […]

[3] = Body weight and toxic side-effects in the DTH study; type: in vivo, mice; settings: oral 1 mg/kg once daily
Method: Three hours after the last dose, the antigen challenge was performed on the ears as described above. Dexamethasone was given at 1 mg/kg orally by gavage 3 h before sensitization and once daily with the final dose given 3 h prior to antigen challenge (a total of 7 administrations). All administrations were given in a volume of 10 mL/kg.
Such high dosing (overdose) is, however, not suitable for treatment of humans due to severe side effects of the corticosteroid and was only used to validate the responsiveness of the model.

Row | Structure (SMILES) | IC50 (RBL-2H3 cells [1]) [nM] | MTC (maximum tolerated concentration) (RBL-2H3 cells [2]; highest concentration not causing cytotoxicity, LDH release) [µM] | SI (safety index, ratio MTC/IC50) (RBL-2H3 cells [2]; ratio between maximum tolerated concentration and IC50) | Level of phospho-Akt Ser473 (phospho-Akt Ser473; 1 μM) [% positive control] | Level of phospho-Akt Ser473 (phospho-Akt Ser473; 5 μM) [% positive control] | Level of phospho-Akt Ser473 (phospho-Akt Ser473; 25 μM) [% positive control] | Inhibition of mouse ear swelling (DTH response) (BALB/cJW mice) [%] | Loss in body weight [3] [%]
1 | CCCCCCCCCCCCCC[N+](C)(C)CCCP(=O)([O-])O [Compound 1c, 3-N,N-Dimethylmyristylammoniopropylphosphonic Acid] | 2800 | 200 | 71.4 | 83.2 ± 17.3 | 11.7 ± 7.7 | 2.2 ± 1.4 | – | –
2 | C[C@@H]1C[C@H]2[C@@H]3CCC4=CC(=O)C=C[C@]4(C)[C@@]3(F)[C@@H](O)C[C@]2(C)[C@@]1(O)C(=O)CO [Dexamethasone, reference compound] | – | – | – | – | – | – | 49 | 4.4
